Reference: patent US20190085024A1, “Alpha-Ketoamide Inhibitors Of Cysteine Proteases” (Phelix Therapeutics, priority 2017, published 2019)

What was measured:
MERS WT = experiment: microbe, parasite or virus in culture; format: cell-based; details: Middle East respiratory syndrome-related coronavirus, read-out: MERS WT (μM)
Cathepsin L = Cathepsin L (Homo sapiens, UniProt P07711); experiment: Cathepsin L enzyme assay; format: biochemical; details: Ki by Morrison equation; pH 5.5, substrate Z-Phe-Arg-Amc; read-out: Cat L
Sequence of Cathepsin L (P07711 114-333, species assumed): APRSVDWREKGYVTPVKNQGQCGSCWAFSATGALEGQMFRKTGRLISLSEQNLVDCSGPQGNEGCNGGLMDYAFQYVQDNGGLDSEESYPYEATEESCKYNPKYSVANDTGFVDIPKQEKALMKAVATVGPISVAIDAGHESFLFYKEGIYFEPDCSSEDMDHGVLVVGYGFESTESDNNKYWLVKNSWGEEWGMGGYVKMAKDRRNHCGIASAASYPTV
Description: Two wells contained DMSO only for controls.
Velocity was converted to μM/sec.

Cathepsin B = Cathepsin B (Homo sapiens, UniProt P07858); experiment: Cathepsin B enzyme assay; details: Cat B (μM), Ki by Morrison equation; pH 6.0, substrate Z-Phe-Arg-Amc
Calpain = Calpain enzyme assay; format: biochemical; details: Ki by Morrison equation; pH 7.5, 5 mM CaCl2

| Structure (SMILES) | IC50 (MERS WT) [µM] | Ki (Cathepsin L) [nM] | Ki (Cathepsin B) [µM] | Ki (Calpain) [nM] |
| --- | --- | --- | --- | --- |
| CC(NC(=O)C(Cc1ccccc1)NC(=O)Cc1ccccc1)C(=O)C(=O)NC(Cc1cccc(F)c1)C(=O)NC(Cc1ccc(-c2ccccc2)cc1)C(N)=O (centres unmarked) [PHELIX266, N-(1-((3-([1,1′-biphenyl]-4-yl)-1-amino-1-oxopropan-2-yl)amino)-3-(3-fluorophenyl)-1-oxopropan-2-yl)-2-oxo-3-(3-phenyl-2-(2-phenylacetamido)propanamido)butanamide] | 0.78 | 0.14 | > 10 | > 10000 |
| CC(NC(=O)C(Cc1ccccc1)NC(=O)Cc1ccccc1)C(=O)C(=O)NC(Cc1cccc(C(F)(F)F)c1)C(=O)NC(Cc1ccc(-c2ccccc2)cc1)C(N)=O (centres unmarked) [PHELIX264, N-(1-((3-([1,1′-biphenyl]-4-yl)-1-amino-1-oxopropan-2-yl)amino)-1-oxo-3-(3-(trifluoromethyl)phenyl)propan-2-yl)-2-oxo-3-(3-phenyl-2-(2-phenylacetmido)propanamido)butanamide] | 2.68 | 1.91 | > 10 | > 10000 |
| CC(NC(=O)C(Cc1ccccc1)NC(=O)Cc1ccccc1)C(=O)C(=O)NC(CC1CCCCC1)C(=O)NC(Cc1ccc(-c2ccccc2)cc1)C(N)=O (centres unmarked) [PHELIX259, N-(1-((3-([1,1′-biphenyl]-4-yl)-1-amino-1-oxopropan-2-yl)amino)-3-cyclohexyl-1-oxopropan-2-yl)-2-oxo-3-(3-phenyl-2-(2-phenylacetamido)propanamido)butanamide] | 1.1 | 1.93 | > 10 | > 10000 |
| CC(C)CC(NC(=O)Cc1ccc(-c2ccccc2)cc1)C(=O)NC(C)C(=O)C(=O)NCC(=O)NC(Cc1ccc2ccccc2c1)C(N)=O (centres unmarked) [PHELIX253, 2-(2-([1,1′-biphenyl]-4-yl)acetamido)-N-(4-((2-((1-amino-3-(naphthalen-2-yl)-1-oxopropan-2-yl)amino)-2-oxoethyl)amino)-3,4-dioxobutan-2-yl)-4-methylpentanamide] | > 30 | 21.5 | 1.17 | 21.4 |
| CC(C)CC(NC(=O)OCc1ccccc1)C(=O)NC(Cc1ccccc1)C(=O)C(=O)NCC(=O)NC(Cc1ccc2ccccc2c1)C(N)=O (centres unmarked) [PHELIX256, benzyl (1-((4-((2-((1-amino-3-(naphthalen-2-yl)-1-oxopropan-2-yl)amino)-2-oxoethyl)amino)-3,4-dioxo-1-phenylbutan-2-yl)amino)-4-methyl-1-oxopentan-2-yl)carbamate] | 4.97 | 1.47 | 0.24 | 12.2 |
| CC(NC(=O)C(Cc1ccccc1)NC(=O)Cc1ccccc1)C(=O)C(=O)NC(CC1CC1)C(=O)NC(Cc1ccc(-c2ccccc2)cc1)C(N)=O (centres unmarked) [PHELIX260, N-(1-((3-([1,1′-biphenyl]-4-yl)-1-amino-1-oxopropan-2-yl)amino)-3-cyclopropyl-1-oxopropan-2-yl)-2-oxo-3-(3-phenyl-2-(2-phenylacetamido)propanamido)butanamide] | 1.81 | 0.27 | 0.0178 | > 10000 |
| CCC(C)C(NC(=O)C(CC(C)C)NC(=O)C(Cc1ccccc1)NC(=O)OCc1ccccc1)C(=O)C(=O)NC(CCCNC(=N)N)C(N)=O (centres unmarked) [PHELIX268, benzyl (1-amino-10-(sec-butyl)-6-carbamoyl-1-imino-13-isobutyl-8,9,12,15-tetraoxo-17-phenyl-2,7,11,14-tetraazaheptadecan-16-yl)carbamate] | > 30 | 0.95 | 0.171 | 10.6 |
| CC(NC(=O)C(Cc1ccccc1)NC(=O)Cc1ccccc1)C(=O)C(=O)NC(Cc1ccc(C(F)(F)F)cc1)C(=O)NC(Cc1ccc(-c2ccccc2)cc1)C(N)=O (centres unmarked) [PHELIX261, N-(1-((3-([1,1′-biphenyl]-4-yl)-1-amino-1-oxopropan-2-yl)amino)-1-oxo-3-(4-(trifluoromethyl)phenyl)propan-2-yl)-2-oxo-3-(3-phenyl-2-(2-phenylacetamido)propanamido)butanamide] | 2.56 | 2.48 | > 10 | > 10000 |
